# Assays:
# mouse DGAT1 = molecular target: T1, mouse DGAT1 (Mus musculus, UniProt Q9Z2A7); assay: DGAT1 inhibitory effect test (microsome fraction, [14C]-oleoyl-CoA, triglyceride radioactivity by TLC); assay type: biochemical; details: 0.5 h; concentration of the test compound 0.1 μg/ml; mouse DGAT1 microsomes, 23° C., 30 minutes; read-out: Inhibitory ratio
# T1 construct: made in house; host or cells: insect cells (High Five, Sf9, Sf21, etc.), baculovirus expression system (Invitrogen)
# T1 sequence (Q9Z2A7 1-498): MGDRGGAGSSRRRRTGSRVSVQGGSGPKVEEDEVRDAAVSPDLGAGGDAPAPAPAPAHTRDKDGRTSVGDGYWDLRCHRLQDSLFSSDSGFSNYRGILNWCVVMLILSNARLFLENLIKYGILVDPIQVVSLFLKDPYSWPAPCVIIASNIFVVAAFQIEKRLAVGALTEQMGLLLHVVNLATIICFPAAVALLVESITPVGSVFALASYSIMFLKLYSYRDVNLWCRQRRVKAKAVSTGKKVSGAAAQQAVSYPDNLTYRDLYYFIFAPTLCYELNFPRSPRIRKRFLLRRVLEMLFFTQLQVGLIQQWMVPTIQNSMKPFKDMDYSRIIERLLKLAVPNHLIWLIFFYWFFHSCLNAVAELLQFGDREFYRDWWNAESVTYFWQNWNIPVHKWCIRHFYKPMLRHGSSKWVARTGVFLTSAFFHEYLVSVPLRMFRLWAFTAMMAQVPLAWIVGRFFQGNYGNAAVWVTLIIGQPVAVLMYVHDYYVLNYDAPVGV
# Outline: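 Baculovirus-expressed mouse DGAT1 insect-cell microsomes (10 μg) were incubated 30 min at 23 °C, pH 8.0, with 0.5 mM 1,2-dioleoyl-sn-glycerol, 30 μM [14C]-oleoyl-CoA and 0.5% Triton X-100. [14C]-triglyceride was quantified after heptane extraction and TLC. Percent inhibition was taken against vehicle control, with 0-min background subtracted.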
inhibition at 0.1 µg/mL (mouse DGAT1),melting point,Compound
≥ 50%,249 to 251 °C,"Cc1cccc(Cl)c1NC(=O)N1CCN(c2ccc(NC(=O)Nc3cc(C(F)(F)F)ccc3Cl)cc2)CC1 [Example 164, 4-{4-[3-(2-chloro-5-trifluoromethyl-phenyl)-ureido]-phenyl}-piperazine-1-carboxylic acid (2-chloro-6-methyl-phenyl)-amide]"
≥ 50%,196 to 197 °C,"COc1ccc(C)cc1NC(=O)Nc1ccc(N2CCN(C(=O)Nc3ccc(OCCO)cc3Cl)CC2)nc1 [Example 268, 4-{5-[3-(2-methoxy-5-methyl-phenyl)-ureido]-pyridin-2-yl}-piperazine-1-carboxylic acid [2-chloro-4-(2-hydroxy-ethoxy)-phenyl]-amide]"
≥ 50%,150 to 153 °C,"COc1ccc(C)cc1NC(=O)Nc1ccc(C2=CCN(C(=O)Nc3ccc(OCCO)cc3C(F)(F)F)CC2)cc1 [Example 230, 4-{4-[3-(2-methoxy-5-methyl-phenyl)-ureido]-phenyl}-3,6-dihydro-2H-pyridine-1-carboxylic acid [4-(2-hydroxy-ethoxy)-2-trifluoromethyl-phenyl]-amide]"
≥ 50%,221 to 222 °C,"COc1ccc(C)cc1NC(=O)Nc1ccc(N2CCN(C(=O)Nc3c(C)cccc3Br)CC2)cc1 [Example 177, 4-{4-[3-(2-methoxy-5-methyl-phenyl)-ureido]-phenyl}-piperazine-1-carboxylic acid (2-bromo-6-methyl-phenyl)-amide]"
≥ 50%,152 to 154 °C,"COc1ccc(C)cc1NC(=O)Nc1ccc(N2CCN(C(=O)Nc3ccc(OCCO)cc3Cl)CC2)cc1 [Example 248, 4-{4-[3-(2-methoxy-5-methyl-phenyl)-ureido]-phenyl}-piperazine-1-carboxylic acid [2-chloro-4-(2-hydroxy-ethoxy)-phenyl]-amide]"
≥ 50%,108 to 110 °C,"COc1cc(NC(=O)Nc2ccc3c(c2)CCN(C(=O)Nc2ccc(OCC(O)CO)cc2Cl)C3)cc(OC)c1 (centres unmarked) [Example 285, 6-[3-(3,5-dimethoxy-phenyl)-ureido]-3,4-dihydro-1H-isoquinoline-2-carboxylic acid [2-chloro-4-(2,3-dihydroxy-propoxy)-phenyl]-amide]"
≥ 50%,177 to 179 °C,"CCOc1ccccc1NC(=O)Nc1ccc(N2CCN(C(=O)Nc3c(F)cccc3C(F)(F)F)CC2)nc1 [Example 143, 4-{5-[3-(2-ethoxy-phenyl)-ureido]-pyridin-2-yl}-piperazine-1-carboxylic acid (2-fluoro-6-trifluoromethyl-phenyl)-amide]"
≥ 50%,156 to 158 °C,"COc1ccc(Cl)cc1NC(=O)Nc1ccc(N2CCN(C(=O)Nc3c(F)cccc3C(F)(F)F)CC2)cc1 [Example 115, 4-{4-[3-(5-chloro-2-methoxy-phenyl)-ureido]-phenyl}-piperazine-1-carboxylic acid (2-fluoro-6-trifluoromethyl-phenyl)-amide]"
≥ 50%,189 to 190 °C,"O=C(Nc1ccc(N2CCN(C(=O)Nc3ccc(OCC(O)CO)cc3Cl)CC2)cc1)Nc1ccccc1F (centres unmarked) [Example 278, 4-{4-[3-(2-fluoro-phenyl)-ureido]-phenyl}-piperazine-1-carboxylic acid [2-chloro-4-(2,3-dihydroxy-propoxy)-phenyl]-amide]"
≥ 50%,209 to 221 °C,"COc1ccc(C)cc1NC(=O)Nc1ccc(N2CCN(C(=O)Nc3ccc(C(=O)O)cc3Cl)CC2)cc1 [Example 181, 3-chloro-4-[(4-{4-[3-(2-methoxy-5-methyl-phenyl)-ureido]-phenyl}-piperazine-1-carbonyl)-amino]-benzoic acid]"
